{"source": "patent US8962600B2", "about": "“Neuroprotective compounds and their use” (The Medical College of Wisconsin, Inc., priority 2009, dated 2015)", "key": {"[1]": {"test_system": "IBA-1", "assay": "IBA-1 expression in substantia nigra (microglial activation), immunostaining", "assay_type": "in vivo, C57BL/6 mice", "conditions": "diapocynin 300 mg/kg gavage, 1 day pre-treatment + 4 days co-treatment with MPTP 25 mg/kg i.p.", "procedure": "(§1) For checking inflammatory and oxidative stress markers, mice were gavaged diapocynin (300 mg/kg dose) 1 day before MPTP treatment (pre-treatment) and continued for another 4 days of co-treatment with MPTP. In the sub-acute MPTP regimen, MPTP (25 mg/kg) was injected intraperitoneally once per day from day 2 to day 7. Control mice received saline at the same dosage.\n(§2) Four days after MPTP treatment, mice were perfused with 4% paraformaldehyde (PFA) and post-fixed with PFA and 30% sucrose, respectively. Next, fixed brains were cut into 30 μm sections and kept in 30% sucrose-ethylene glycol solutions at −20° C. On the day of staining, sections were rinsed with phosphate-buffered saline (PBS) and incubated with different primary antibodies, including anti-IBA-1 (DAKO, Carpinteria, Calif.), anti-GFAP (Millipore, Billerica, Mass.), anti-iNOS (Santa Cruz Biotechnology, Santa Cruz, Calif.), anti-3NT (Millipore), anti-4HNE (R&D Systems, Minneapolis, Minn.) and anti-gp91phox (Santa Cruz Biotechnology) for overnight at 4° C. Appropriate secondary antibodies (Alexa Fluor 488, 594, or 555 from Invitrogen, Carlsbad, Calif.) were used followed by incubation with 10 μg/ml Hoechst 33342 for 5 min at room temperature to stain the nucleus. Sections were viewed under a Nikon inverted fluorescence microscope (model TE-2000U; Nikon, Tokyo, Japan). […]"}, "[2]": {"test_system": "gp91phox", "assay": "gp91phox expression in substantia nigra, Western blot and DAB immunostaining", "assay_type": "in vivo, C57BL/6 mice", "procedure": "as §1, §2"}, "[3]": {"test_system": "IL-1β", "assay": "LPS-induced IL-1β release in primary microglia, LUMINEX immunoassay", "assay_type": "cell-based, mouse", "conditions": "diapocynin 10 μM, LPS 24 hr", "procedure": "Primary microglia were obtained from 1-2 day old C57/b16 mouse pups. Upon collection, whole brains were kept in ice-cold DMEM-F12 medium containing 10% FBS, 1× sodium pyruvate, 1× NEAAs, 100 units pen/strep, and Q. After collection, the brains were placed in 0.25% trypsin-EDTA and incubated at 37° C., with gentle shaking every 5-10 min. After 30 min, the trypsin was removed, and the brains are washed in warmed medium twice. After washing, medium was added to the brains, and the brains were homogenized using gentle pipetting, starting with a 25 ml pipette and moving to smaller pipette tips as the brains were broken up. When the brains were sufficiently homogenized to a single-cell suspension, they were filtered with a 70 μm nylon filter, which allowed microglia and astrocytes to be collected. The resultant cell suspension was plated in T-75 flasks and allowed to grow for 12-14 days at 37° C., 5% CO2. […]\nCytokine levels of BV2 and microglial cells treated with diapocynin were determined by LUMINEX® multiplex immunoassay. […]\nCytokine standards and controls were adjusted to 40 μl volume and the LUMINEX® Samples were run on a LUMINEX® 200 Total System and analyzed with Multiplex Analysis—LUMINEX® Software (Invitrogen, Carlsbad, Calif.)."}}}
{"smiles": "COc1cc(C(C)=O)cc(-c2cc(C(C)=O)cc(OC)c2O)c1O", "note": "[diapocynin]", "values": [{"measurement": "IBA-1 protein expression in substantia nigra", "setting": "[1]", "result": "inhibition"}, {"measurement": "MPTP-induced expression of gp91phox in substantia nigra", "setting": "[2]; diapocynin 300 mg/kg gavage, MPTP 25 mg/kg i.p., Western blot and DAB immunostaining", "result": "attenuated"}, {"measurement": "colocalization of gp91phox with IBA-1 positive cells", "setting": "[2]; double-labeling, mice treated with MPTP and diapocynin 300 mg/kg", "result": "no colocalization"}, {"measurement": "blocking LPS-induced release of IL-1β", "setting": "[3]", "result": "very effective"}]}
